From US20040109905A1, “Method and composition of anthocyanin-rich berry extracts that prevents or inhibits angiogenesis and helicobacter pylori and acts as a powerful antioxidant that provides various health benefits” (priority 2002, published 2004)

System: H2O2-induced expression of VEGF
Test: H2O2-induced VEGF expression in HaCaT keratinocytes (ELISA)
Format: cell-based, human
Conditions: for VEGF: HaCaT cells, FA 200 nM, catechin 100 nM, rutin 1 μM, α-tocopherol 10 μM for 12 hours, then H2O2 150 μM for 12 hours, Mean±SD of three experiments; for effect on H2O2 (oxidant)-inducible VEGF expression, in words: human keratinocytes
Protocol: The cells used for the test were immortalized HaCaT human keratinocytes grown in Dulbecco's modified Eagle's medium (provided by Life Technologies of Gaithersburg, Md.) and supplemented with 10% fetal bovine serum, 100 U/mL penicillin and 100 μg/mL streptomycin.
Solutions incorporating berry extracts or GSPE were prepared fresh in dimethyl sulfoxide at concentrations such that the final concentration of the solvent in cell suspension never exceeded 0.1% prior to cell treatment, the DMSO solutions were passed through a […] filter for sterilization. Respective controls were treated with equal volumes of dimethyl sulfoxide. The test cells were pretreated with the berry solutions.
Test cells were seeded onto multiple well culture-plates. After 24 hours of growth at 80% confluency, the cells were synchronized by culturing them in a serum-deprived medium for 12 hours. Following the synchronization, the cells were treated with H2O2 or TNFα. The berry treatment protocols are described in the legends for Tables 2 through 4 below. A serum-free medium was selected to avoid any possible interaction between the serum components and H2O2. The VEGF level in the medium was determined using a commercially available ELISA kit, marketed by R and D systems of Minneapolis, Minn.
HaCaT cells were seeded at density 0.45×10^6/well/3 ml. After 24 hr, growth media was chanced to serum free RPMI and berry samples (50 μg/ml) or GSPE (25 μg/ml) were added. After 12 hours, cells were challenged with H2O2 (150 μM). After 12 hours of activation with H2O2, media was collected for ELISA. *p<0.05, higher in response to H2O2 treatment; *lower compared to H2O2 treated cells. Mean±SD of three experiments.
HaCaT cells were seeded at density 0.45×10^6/well/3 ml. After 24 hr, growth media was chanced to serum free RPMI and either pure flavonoids ([…], FA 200 nM; catechin, Cat 100 nM, ruti, rut 1 μM) at concentrations observed in berry samples or a α-tocopherol (10 μM as reference antioxidant) were added. After 12 hours, cells were challenged with H2O2 (150 μM). After 12 hours of activation with H2O2, media was collected for ELISA. *p<0.05, higher in response to H2O2 treatment; *lower compared to H2O2 treated cells. Mean±SD of three experiments.

Molecule | VEGF [pg/mL] | effect on H2O2 (oxidant)-inducible VEGF expression, in words
COc1cc(/C=C/C(=O)O)ccc1O [Ferrulic Acid] | 319.19 ± 21.05 | suppress oxidant-inducible VEGF expression to some degree
C[C@@H]1O[C@@H](OC[C@H]2O[C@@H](Oc3c(-c4ccc(O)c(O)c4)oc4cc(O)cc(O)c4c3=O)[C@H](O)[C@@H](O)[C@@H]2O)[C@H](O)[C@H](O)[C@H]1O [Rutin] | 209.06 ± 59.28 | 
Cc1c(C)c2c(c(C)c1O)CC[C@@](C)(CCC[C@H](C)CCC[C@H](C)CCCC(C)C)O2 [α-tocopherol] | 397.10 ± 64.91 | did not influence inducible VEGF expression
Catechin | 285.89 ± 51.13 | suppress oxidant-inducible VEGF expression to some degree
